Literature values, collected in PMC12150326 (The Journal of Organic Chemistry, 2025).
Where “and” joins values, the source holds several entries; their conditions need not be identical. Equal entries are not always repeated. Where two headings read alike, the source gives them in different places.

Legend:
Parameters in all cases: method as in NCI-60 database
K-562 = K-562 ref NCI-60 database, cited from earlier work
EKVX = EKVX ref NCI-60 database, cited from earlier work
HOP-92 = HOP-92 ref NCI-60 database, cited from earlier work
HCC-2998 = HCC-2998 ref NCI-60 database, cited from earlier work
LOX IMVI = LOX IMVI ref NCI-60 database, cited from earlier work
SK-MEL-28 = SK-MEL-28 ref NCI-60 database, cited from earlier work
UACC-62 = UACC-62 ref NCI-60 database, cited from earlier work
IGROV1 = IGROV1 ref NCI-60 database, cited from earlier work
UO-31 = UO-31 ref NCI-60 database, cited from earlier work
MCF7 = MCF7 ref NCI-60 database, cited from earlier work
KM20L2 = KM20L2 ref NCI-60 database, cited from earlier work
OVCAR-3 = OVCAR-3 ref NCI-60 database, cited from earlier work

In the case of `COc1cc2c(c(OC)c1OC)-c1ccc(OC)c(=O)cc1[C@@H](NC(C)=O)CC2` [Colchicine, (−)-Colchicine], the GI50 (K-562) is given as 20 nM, the Log10GI50 (K-562) is given as -7.79 Molar and the Log10LC50 (K-562) is given as greater than -4.00 Molar. For the same compound, the Log10TGI (K-562) was greater than -4.00 Molar, the Log10GI50 (K-562; listed as 757/1) was -7.47 Molar and the Log10GI50 (K-562; listed as 757/21) was < -8.00 Molar and -7.84 Molar and -7.79 Molar. The GI50 (EKVX) was greater than 100000 nM, the Log10GI50 (EKVX) was greater than -4 Molar and the Log10LC50 (EKVX) was greater than -4.00 Molar. For the same compound, the Log10TGI (EKVX) was greater than -4.00 Molar, the Log10GI50 (EKVX; listed as 757/21) was greater than -4.00 Molar and the Log10LC50 (HOP-92) was greater than -4.00 Molar. The Log10GI50 (HOP-92; listed as 757/1) was -7.73 Molar, the Log10TGI (HOP-92; listed as 757/1) was greater than -4.00 Molar and the Log10GI50 (HOP-92; listed as 757/21) was less than -8.00 Molar. The GI50 (HCC-2998) was 30 nM, the Log10GI50 (HCC-2998) was -7.51 Molar and the Log10LC50 (HCC-2998) was greater than -4.00 Molar. The Log10GI50 (HCC-2998; listed as 757/1) was -7.48 Molar, the Log10GI50 (HCC-2998; listed as 757/9) was -7.78 Molar and the Log10TGI (HCC-2998; listed as 757/9) was -7.59 Molar and -7.33 Molar. For the same compound, the GI50 (LOX IMVI) was 19 nM, the Log10GI50 (LOX IMVI) was -7.71 Molar and the Log10GI50 (LOX IMVI; listed as 757/1) was -7.11 Molar. The Log10GI50 (SK-MEL-28; listed as 757/1) was -7.02 Molar, the Log10LC50 (SK-MEL-28; listed as 757/9) was -4.44 Molar and the Log10TGI (SK-MEL-28; listed as 757/9) was -4.95 Molar. The Log10LC50 (SK-MEL-28; listed as 757/21) was greater than -4.00 Molar, the Log10TGI (SK-MEL-28; listed as 757/21) was greater than -4.00 Molar and the GI50 (UACC-62) was 21 nM. The Log10GI50 (UACC-62) was -7.67 Molar, the Log10GI50 (UACC-62; listed as 757/1) was -7.19 Molar and the Log10GI50 (UACC-62; listed as 757/9) was -6.40 Molar. For the same compound, the Log10LC50 (UACC-62; listed as 757/9) was -6.18 Molar, the Log10TGI (UACC-62; listed as 757/9) was -7.72 Molar and the Log10LC50 (UACC-62; listed as 757/21) was > -4.00 Molar and -4.22 Molar. The GI50 (IGROV1) was 52 nM, the Log10GI50 (IGROV1) was -7.28 Molar and the Log10LC50 (IGROV1) was greater than -4.00 Molar. The Log10GI50 (IGROV1; listed as 757/9) was less than -8.00 Molar, the Log10TGI (IGROV1; listed as 757/9) was -7.80 Molar and the Log10TGI (IGROV1; listed as 757/21) was greater than -4.00 Molar. The GI50 (UO-31) was 513 nM, the Log10GI50 (UO-31) was -6.29 Molar and the Log10LC50 (UO-31) was greater than -4.00 Molar. The Log10TGI (UO-31; listed as 757/9) was -6.03 Molar, the Log10TGI (UO-31; listed as 757/21) was -4.19 Molar and > -4.00 Molar and the GI50 (MCF7) was 11 nM. The Log10GI50 (MCF7) was -7.94 Molar, the Log10LC50 (MCF7) was greater than -4.00 Molar and the Log10GI50 (MCF7; listed as 757/9) was less than -8.00 Molar. The Log10TGI (MCF7; listed as 757/9) was -7.92 Molar, the Log10GI50 (MCF7; listed as 757/21) was -7.89 Molar and the Log10TGI (MCF7; listed as 757/21) was greater than -4.00 Molar. For the same compound, the Log10GI50 (KM20L2; listed as 757/1) was < -8.00 Molar and -7.72 Molar, the Log10LC50 (KM20L2; listed as 757/1) was -7.10 Molar and the Log10GI50 (KM20L2; listed as 757/21) was -7.77 Molar. The Log10LC50 (KM20L2; listed as 757/21) was -7.19 Molar, the Log10TGI (KM20L2; listed as 757/21) was -7.48 Molar and the Log10GI50 (OVCAR-3; listed as 757/1) was -7.58 Molar. The Log10LC50 (OVCAR-3; listed as 757/1) was greater than -4.00 Molar, the Log10TGI (OVCAR-3; listed as 757/1) was -7.12 Molar and the Log10GI50 (OVCAR-3; listed as 757/9) was -7.81 Molar. For the same compound, the Log10LC50 (OVCAR-3; listed as 757/9) was less than -8.00 Molar, the Log10TGI (OVCAR-3; listed as 757/9) was -7.44 Molar and the Log10GI50 (OVCAR-3; listed as 757/21) was < -8.00 Molar and -7.73 Molar.
